Marks after values point to notes of the source that are not given here.

Here are results for three compounds from PMC9663686, “Proline, hydroxyproline, and pyrrolidone carboxylic acid derivatives as highly efficient but reversible transdermal permeation enhancers” (Scientific Reports, 2022).

The subject of assay [1] is HaCaT spontaneously immortalized human keratinocytes. Briefly: Neutral red (NR) uptake cell viability assay, HaCaT. The following applies: 48-h incubation, mean ± SEM, read-out: IC50, HaCaT cells, NR assay. The class given is cell-based. The text has this:
(§1) Next, the in vitro toxicities of the most promising enhancers Pro3 and Pro4, along with the parent Pro2, on spontaneously immortalized human keratinocytes (HaCaT) and Swiss albino mouse embryonic fibroblasts (3T3) were studied (Fig. 3). […] The cellular toxicities were further probed using the 3-(4,5-dimethylthiazol-2-yl)-2,5-diphenyltetrazolium bromide (MTT) uptake assay, based on the transformation of yellow MTT into purple formazan by mitochondrial reductases of living cells. The MTT assay also yielded toxicity values in tens of µM with trends to higher toxicity with a longer acyl chain length (thus also higher lipophilicity) of enhancers (Fig. 3).
(§2) Cell viability was determined via 3-(4,5-dimethylthiazol-2-yl)-2,5-diphenyltetrazolium bromide (MTT) and neutral red (NR) uptake assays after 48-h incubation with the enhancers (see Supplementary data for details).
(§3) Both cell lines were cultivated in Dulbecco’s modified Eagle’s medium (DMEM, Lonza, Basel, Switzerland) supplemented with 10% heat-inactivated fetal bovine serum (Merck, Darmstadt, Germany), 10 mM HEPES buffer (Merck, Darmstadt, Germany), and 1% penicillin/streptomycin solution (Lonza, Basel, Switzerland) in 75-cm^2 tissue culture flasks (TPP, Trasadingen, Switzerland) at 37°C in a humidified atmosphere of 5% CO2. Subconfluent cells were sub-cultured every 3-4 days.
For toxicity studies, the stock-solutions of studied compounds were prepared in dimethyl sulfoxide (DMSO). These stock samples were diluted to the required concentration by the cell culture medium immediately before adding them onto the cells. The amount of DMSO applied to the cells was kept under its intrinsic measurable toxicity limit (below 1 vol.%). […]
Another approach used for the toxicity assessment was the neutral red (NR) uptake assay. […] The plates were shaken at rt for 30 min, and the optical density of the soluble NR was measured at λ = 540 nm using a Tecan Infinite 200 M plate reader.
(§4) The viability of each experimental group was expressed as the percentage of the untreated controls incubated under the same conditions (100%).

Assay [2] shares this test system. Briefly: MTT cell viability assay, HaCaT. The assay is classed as cell-based. The following applies: 48-h incubation, mean ± SEM, read-out: IC50, HaCaT cells, MTT assay.
Excerpt: as §1, §2, §3
(§5) For toxicity studies, the stock-solutions of studied compounds were prepared in dimethyl sulfoxide (DMSO). […]
(§6) After 48-h incubation with the studied enhancer, cell viability was determined via 3-(4,5-dimethylthiazol-2-yl)-2,5-diphenyltetrazolium bromide (MTT) uptake assay based on the transformation of yellow MTT into purple formazan by mitochondrial reductase activity of living cells. […] Afterward, the cell viability was assessed by optical density measurement using a Tecan Infinite 200 M plate reader (Tecan, Grödig, Austria) at λ = 570 nm.
as §4

Assay [3] relates to 3T3 mouse fibroblasts. Briefly: MTT cell viability assay, 3T3. The assay is classed as cell-based. Particulars: NIH3T3, 48-h incubation, mean ± SEM, read-out: IC50, 3T3 cells, MTT assay.
Excerpt: as §1, §2, §3, §5, §6, §4

Assay [4] deals with human skin. Kind of assay: Transepidermal water loss (TEWL) of human skin in vitro, reversibility. Particulars: for TEWL 1 h after the sample had been removed / TEWL 4 h after the sample had been removed / TEWL 8 h after the sample had been removed / TEWL 12 h after the sample had been removed / TEWL 24 h after the sample had been removed: 24-h application of 1% enhancer (1% Azone, 5% SDS) in 60% PG; for TEWL 1 h after the sample had been removed / TEWL 4 h after the sample had been removed / TEWL 8 h after the sample had been removed / TEWL 12 h after the sample had been removed / TEWL 24 h after the sample had been removed / TEWL before sample application (baseline): mean ± SEM; for TEWL values after 24-h treatment (range over the three enhancers): 1% in 60% PG, baseline around 27 g/m^2/h; for time after enhancer removal for TEWL to decline to values similar to baseline: after 24-h application of 1% enhancer in 60% PG. From the text: (§7) We further investigated the direct effects of the selected enhancers on the skin barrier assessed by TEWL and the electrical impedance of human skin in vitro. TEWL is a method commonly used in dermatology[38] to study, for example, the irritant potential of chemicals, skin barrier recovery, or effect of topical formulations, and permeation enhancers[17],[21],[41]–[44]. Electrical impedance measures the opposition of the skin to alternating electrical current and is inversely proportional to the flux of ions. Thus, increased TEWL or decreased impedance indicates a barrier impairment[45],[46]. Electrical impedance or conductance measurements have been used to screen new enhancers or assess the irritation potential of compounds[13],[15],[17],[21],[32],[44],[47]–[50]. Both TEWL and impedance can distinguish between reversible and irreversible effects of enhancers on skin permeability[17],[21],[40],[44],[51].
(§8) Human skin was mounted in Franz diffusion cells in the same way as for the permeation studies. After 1-h equilibration, basal TEWL and impedance values were recorded. Then, 1% enhancer in 60% PG, 60% PG as a negative control, 1% Azone in 60% PG, or 5% SDS in 60% PG as positive (irreversible) controls was applied on the skin (100 µl/cm^2) for 24 h. The residual sample was washed with PBS and gently blotted dry. At 1, 4, 8, 12, and 24 h after sample removal, TEWL, and impedance values were recorded. TEWL was measured using AquaFlux AF 200 (Biox Systems Ltd, London, UK), employing the condenser-chamber measurement method at 26 ± 1.0 °C and 43 ± 3% relative air humidity. Electrical impedance was measured by LCR meter 4080 (Conrad electronic, Hirschau, Germany, measuring range 20 Ω–10 MΩ, error at kΩ values < 0.5%) operated in parallel mode with an alternating frequency of 120 Hz, which was also used in our previous work[21],[44].
(§9) Samples were removed from the skin after 24 h, and TEWL and impedance values were recorded in predetermined time intervals (1, 4, 8, 12, and 24 h after sample removal). Data are presented as the means ± SEM; n ≥ 3. * statistically significant difference compared to the baseline value before the sample application at p < 0.05. ^+ statistically significant compared to the value 1 h after the sample removal at p < 0.05.^ ≠ statistically significant compared to the control (60% PG without enhancer) at the same time point, at p < 0.05.

Assay [5] relates to human skin. Kind of assay: Electrical impedance of human skin in vitro, reversibility. Particulars: for impedance 1 h after the sample had been removed / impedance 4 h after the sample had been removed / impedance 8 h after the sample had been removed / impedance 12 h after the sample had been removed / impedance 24 h after the sample had been removed: 24-h application of 1% enhancer (1% Azone, 5% SDS) in 60% PG; for impedance 1 h after the sample had been removed / impedance 4 h after the sample had been removed / impedance 8 h after the sample had been removed / impedance 12 h after the sample had been removed / impedance 24 h after the sample had been removed / impedance before sample application (baseline): mean ± SEM; for fold decrease of skin impedance compared to baseline (range over enhancers and control): 24 h treatment, baseline 25–29 kΩ × cm^2; for recovery of skin impedance after sample removal: after 24-h application, followed 24 h after removal.
Excerpt: as §7, §8, §9

For `CCCCCCCCCCCCOC(=O)C1CCCN1C(C)=O` (stereo not drawn) [Pro2, N-acetyl proline dodecyl ester], in assay [1], the IC50 stood at 98.1 ± 4.49 µM. Also, in assay [2], the IC50 amounted to 53.2 ± 3.19 µM. The IC50 in assay [3] amounted to 92.4 ± 2.82 µM. Further, in assay [4], the “TEWL 1 h after the sample had been removed” value (from here on “TEWL 1 h”) was 65.4 ± 1.5*^≠ g/m^2/h, the “TEWL 4 h after the sample had been removed” value (“TEWL 4 h” for short) is recorded as 56.0 ± 1.3*^≠ g/m^2/h, the “TEWL 8 h after the sample had been removed” value (“TEWL 8 h” for short) is given as 45.9 ± 1.5*^≠+ g/m^2/h and the “TEWL 12 h after the sample had been removed” value (“TEWL 12 h” for short) was 42.5 ± 2.5*^≠+ g/m^2/h. In assay [4], the “TEWL 24 h after the sample had been removed” value (from here on “TEWL 24 h”) was 41.8 ± 1.0*^≠+ g/m^2/h, the “TEWL values after 24-h treatment (range over the three enhancers)” value was 50–65 g/m^2/h and the “TEWL before sample application (baseline)” value worked out at 25.0 ± 3.0 g/m^2/h. Further, the “reversibility of TEWL increase” value in assay [4] (after 24-h application, followed 24 h after removal) is “only partly reversible within 24 h”. In assay [5], the “impedance 1 h after the sample had been removed” value (from here on “impedance 1 h”) was 2.8 ± 0.1* kΩ×cm^2, the “impedance 4 h after the sample had been removed” value (from here on “impedance 4 h”) is given as 6.0 ± 1.1*^≠ kΩ×cm^2, the “impedance 8 h after the sample had been removed” value (from here on “impedance 8 h”) was 8.1 ± 1.7*^≠ kΩ×cm^2 and the “impedance 12 h after the sample had been removed” value (from here on “impedance 12 h”) is given as 8.6 ± 2.0*^≠ kΩ×cm^2. Besides, in assay [5], the “impedance 24 h after the sample had been removed” value (shortened to “impedance 24 h”) was 9.4 ± 2.6*^≠+ kΩ×cm^2; the “fold decrease of skin impedance compared to baseline (range over enhancers and control)” value (“fold decrease of skin impedance” below) is listed as 5–21 times; the “recovery of skin impedance after sample removal” value (shortened to “recovery of skin impedance”) is listed as “recovered incompletely”; the “impedance before sample application (baseline)” value is 25.2 ± 2.1 kΩ×cm^2.
In the case of `CCCCCCCCCCCCOC(=O)C1CCCN1C(=O)CC` (stereo not drawn) [Pro3], in assay [1], the IC50 amounted to 74.4 ± 1.75 µM. Besides, in assay [2], the IC50 was 32.7 ± 2.48 µM. Besides, the IC50 in assay [3] was determined as 84.4 ± 1.5 µM. In addition, in assay [4], the “TEWL 1 h” value is 59.4 ± 5.6*^≠ g/m^2/h, the “TEWL 4 h” value is recorded as 47.1 ± 1.7*^≠+ g/m^2/h, the “TEWL 8 h” value was 36.5 ± 1.1^+ g/m^2/h and the “TEWL 12 h” value is on record as 30.2 ± 2.2^+ g/m^2/h. In assay [4], the “TEWL 24 h” value is given as 27.4 ± 2.2^+ g/m^2/h, the “TEWL values after 24-h treatment (range over the three enhancers)” value is given as 50–65 g/m^2/h, the “time after enhancer removal for TEWL to decline to values similar to baseline” value was at most 8 h and the “TEWL before sample application (baseline)” value was 27.5 ± 6.3 g/m^2/h. For the same compound, in assay [5], the “impedance 1 h” value is on record as 1.4 ± 0.8* kΩ×cm^2, the “impedance 4 h” value was 7.9 ± 0.4*^≠+ kΩ×cm^2, the “impedance 8 h” value was 13.1 ± 0.7*^≠+ kΩ×cm^2 and the “impedance 12 h” value is listed as 15.8 ± 1.0*^≠+ kΩ×cm^2. Also, in assay [5], the “impedance 24 h” value is reported as 18.6 ± 0.9*^≠+ kΩ×cm^2; the “fold decrease of skin impedance” value is listed as 5–21 times; the “recovery of skin impedance” value is listed as “recovered incompletely”; the “impedance before sample application (baseline)” value turned out to be 28.9 ± 1.7 kΩ×cm^2.
As to `CCCCCCCCCCCCOC(=O)C1CCCN1C(=O)CCC` (stereo not drawn) [Pro4], the IC50 in assay [1] turned out to be 54.6 ± 1.11 µM. Further, the IC50 in assay [2] amounted to 33.2 ± 2.02 µM. Moreover, the IC50 in assay [3] was determined as 63.9 ± 1.91 µM. Besides, in assay [4], the “TEWL 1 h” value was 49.9 ± 5.2*^≠ g/m^2/h, the “TEWL 4 h” value is reported as 39.4 ± 2.5*^+ g/m^2/h, the “TEWL 8 h” value was 30.5 ± 1.3^+ g/m^2/h and the “TEWL 12 h” value is recorded as 26.3 ± 1.8^+ g/m^2/h. Also, in assay [4], the “TEWL 24 h” value is on record as 25.0 ± 2.8^+ g/m^2/h, the “TEWL values after 24-h treatment (range over the three enhancers)” value is 50–65 g/m^2/h, the “time after enhancer removal for TEWL to decline to values similar to baseline” value is recorded as at most 8 h and the “TEWL before sample application (baseline)” value amounted to 27.3 ± 4.1 g/m^2/h. Moreover, in assay [5], the “impedance 1 h” value was 3.8 ± 0.8* kΩ×cm^2, the “impedance 4 h” value is 11.5 ± 1.7*^+ kΩ×cm^2, the “impedance 8 h” value is given as 18.3 ± 2.5*^+ kΩ×cm^2 and the “impedance 12 h” value is given as 21.2 ± 2.5*^+ kΩ×cm^2. Also, in assay [5], the “impedance 24 h” value is listed as 23.8 ± 2.9^+ kΩ×cm^2; the “fold decrease of skin impedance” value is 5–21 times; the “recovery of skin impedance” value is on record as “recovered to values similar to baseline within 24 h”; the “impedance before sample application (baseline)” value amounted to 28.9 ± 2.6 kΩ×cm^2.
